In ChEMBL document CHEMBL1149344, “Discovery of aminoquinazolines as potent, orally bioavailable inhibitors of Lck: synthesis, SAR, and in vivo anti-inflammatory activity” (J Med Chem, 2006) one finds IC50, Activity and solubility data, which are given here for 28 compounds.

Converted amounts (≈) assume the structure as drawn. A value given as a limit tells only on which side of the number the result lay.

Data set [1] has as its system T-cell. Description: Inhibition of human T cell proliferation by mixed lymphocyte reaction.
The species named for a further data set is Homo sapiens. Description: Inhibition of anti CD3-induced IL2 production in human whole blood. The class given is functional.
Data set [2] deals with Vascular endothelial growth factor receptor 2 (Homo sapiens, UniProt P35968). The data set is described as follows: Inhibition of KDR by HTRF kinase assay. Background: TR-FRET usually uses a lanthanide donor and a delayed reading to cut background.
For data set [3], the system named is T-cell. The data set is described as follows: Inhibition of anti CD3/CD28-induced IL2 secretion in human T cells. The class given is functional, cell-based.
Data set [4] concerns the target T1, Tyrosine-protein kinase JAK3 (Homo sapiens, UniProt P52333).
T1 sequence (P52333 whole entry): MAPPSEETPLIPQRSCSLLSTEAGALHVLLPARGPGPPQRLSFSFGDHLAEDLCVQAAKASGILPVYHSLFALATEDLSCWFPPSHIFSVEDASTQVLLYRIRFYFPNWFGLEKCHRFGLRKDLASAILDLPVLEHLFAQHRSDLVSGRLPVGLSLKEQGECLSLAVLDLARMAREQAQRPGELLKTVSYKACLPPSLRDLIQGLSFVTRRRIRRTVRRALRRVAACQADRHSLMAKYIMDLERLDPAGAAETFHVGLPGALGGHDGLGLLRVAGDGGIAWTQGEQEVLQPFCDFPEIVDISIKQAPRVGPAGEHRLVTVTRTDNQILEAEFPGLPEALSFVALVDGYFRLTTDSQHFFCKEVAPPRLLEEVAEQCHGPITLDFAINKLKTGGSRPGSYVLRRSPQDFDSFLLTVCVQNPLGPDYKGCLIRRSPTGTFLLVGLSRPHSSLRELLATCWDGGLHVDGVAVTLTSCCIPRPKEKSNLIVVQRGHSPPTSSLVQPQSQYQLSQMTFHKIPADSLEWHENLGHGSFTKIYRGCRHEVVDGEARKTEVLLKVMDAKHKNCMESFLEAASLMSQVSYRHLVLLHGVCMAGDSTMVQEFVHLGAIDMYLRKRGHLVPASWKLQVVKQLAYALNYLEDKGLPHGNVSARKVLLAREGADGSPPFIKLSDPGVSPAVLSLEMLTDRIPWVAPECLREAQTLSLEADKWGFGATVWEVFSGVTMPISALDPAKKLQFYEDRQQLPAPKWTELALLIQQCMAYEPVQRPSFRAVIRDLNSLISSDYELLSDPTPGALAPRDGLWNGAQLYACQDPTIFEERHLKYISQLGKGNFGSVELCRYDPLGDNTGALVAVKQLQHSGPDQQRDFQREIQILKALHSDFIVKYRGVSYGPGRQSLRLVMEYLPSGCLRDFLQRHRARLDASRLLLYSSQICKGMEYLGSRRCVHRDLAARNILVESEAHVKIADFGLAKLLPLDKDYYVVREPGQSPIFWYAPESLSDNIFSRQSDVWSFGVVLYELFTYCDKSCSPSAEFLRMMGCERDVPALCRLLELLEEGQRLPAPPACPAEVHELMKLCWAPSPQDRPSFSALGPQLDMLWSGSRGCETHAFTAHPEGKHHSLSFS
The data set is described as follows: Inhibition of Jak3 by HTRF kinase assay.

Data set [5] addresses Mitogen-activated protein kinase 14 (Homo sapiens, UniProt Q16539). The data set is described as follows: Inhibition of p38-alpha by HTRF kinase assay.
For data set [6], the target named is Tyrosine-protein kinase Lck (Homo sapiens, UniProt P06239).
Data set [7] is described as follows: Solubility in fasted state simulated intestinal fluid at pH 6.8. The class given is physicochemical.

Tyrosine-protein kinase Lck, sequence (P06239 whole entry): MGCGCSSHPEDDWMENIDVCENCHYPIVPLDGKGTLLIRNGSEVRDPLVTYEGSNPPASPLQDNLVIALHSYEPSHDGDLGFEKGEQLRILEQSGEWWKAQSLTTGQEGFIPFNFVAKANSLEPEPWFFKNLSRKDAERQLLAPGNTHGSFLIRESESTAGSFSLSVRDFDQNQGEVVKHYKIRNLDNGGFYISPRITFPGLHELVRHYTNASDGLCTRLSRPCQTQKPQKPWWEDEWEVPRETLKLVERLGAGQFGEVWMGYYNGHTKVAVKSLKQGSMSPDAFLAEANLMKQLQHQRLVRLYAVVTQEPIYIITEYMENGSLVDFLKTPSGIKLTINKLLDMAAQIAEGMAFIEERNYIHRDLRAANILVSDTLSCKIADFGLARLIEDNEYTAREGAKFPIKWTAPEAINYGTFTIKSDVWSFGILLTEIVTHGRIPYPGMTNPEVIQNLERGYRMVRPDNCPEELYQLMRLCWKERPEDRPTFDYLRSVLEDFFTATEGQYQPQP
Vascular endothelial growth factor receptor 2, sequence (P35968 whole entry): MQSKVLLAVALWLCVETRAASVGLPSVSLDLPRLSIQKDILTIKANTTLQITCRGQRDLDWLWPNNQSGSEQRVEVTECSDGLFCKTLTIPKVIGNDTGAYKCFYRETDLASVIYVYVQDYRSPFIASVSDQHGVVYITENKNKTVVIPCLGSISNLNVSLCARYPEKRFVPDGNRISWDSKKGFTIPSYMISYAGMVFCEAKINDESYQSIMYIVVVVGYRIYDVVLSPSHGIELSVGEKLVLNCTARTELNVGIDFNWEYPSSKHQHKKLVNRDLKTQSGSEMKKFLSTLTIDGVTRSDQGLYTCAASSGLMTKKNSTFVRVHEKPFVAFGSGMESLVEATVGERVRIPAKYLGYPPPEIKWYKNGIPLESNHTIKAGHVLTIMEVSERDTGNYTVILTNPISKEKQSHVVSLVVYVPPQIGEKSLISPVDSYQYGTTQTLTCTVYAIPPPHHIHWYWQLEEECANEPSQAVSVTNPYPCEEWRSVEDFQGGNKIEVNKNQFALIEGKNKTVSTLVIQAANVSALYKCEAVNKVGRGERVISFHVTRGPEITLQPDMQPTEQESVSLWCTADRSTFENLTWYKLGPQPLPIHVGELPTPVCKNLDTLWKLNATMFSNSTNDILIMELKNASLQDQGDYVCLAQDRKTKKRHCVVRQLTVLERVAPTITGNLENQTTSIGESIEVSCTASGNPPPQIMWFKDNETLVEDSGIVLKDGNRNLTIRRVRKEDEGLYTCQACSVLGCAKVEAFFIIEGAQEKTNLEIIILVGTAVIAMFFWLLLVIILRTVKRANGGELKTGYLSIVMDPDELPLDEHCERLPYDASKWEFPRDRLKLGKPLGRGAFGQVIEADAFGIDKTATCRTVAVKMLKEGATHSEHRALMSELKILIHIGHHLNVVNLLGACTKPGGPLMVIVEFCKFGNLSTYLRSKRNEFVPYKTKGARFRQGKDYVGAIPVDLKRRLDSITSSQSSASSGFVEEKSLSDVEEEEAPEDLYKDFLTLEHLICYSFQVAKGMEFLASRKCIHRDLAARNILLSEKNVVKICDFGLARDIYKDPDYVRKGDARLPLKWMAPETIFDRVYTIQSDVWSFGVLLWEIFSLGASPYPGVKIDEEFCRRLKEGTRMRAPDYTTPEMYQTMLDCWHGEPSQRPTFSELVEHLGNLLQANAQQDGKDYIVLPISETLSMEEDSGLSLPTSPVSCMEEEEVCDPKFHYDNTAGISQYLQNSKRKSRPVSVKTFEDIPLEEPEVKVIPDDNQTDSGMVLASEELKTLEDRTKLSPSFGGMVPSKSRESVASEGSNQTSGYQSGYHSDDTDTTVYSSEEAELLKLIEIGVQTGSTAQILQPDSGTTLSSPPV
Mitogen-activated protein kinase 14, sequence (Q16539 whole entry): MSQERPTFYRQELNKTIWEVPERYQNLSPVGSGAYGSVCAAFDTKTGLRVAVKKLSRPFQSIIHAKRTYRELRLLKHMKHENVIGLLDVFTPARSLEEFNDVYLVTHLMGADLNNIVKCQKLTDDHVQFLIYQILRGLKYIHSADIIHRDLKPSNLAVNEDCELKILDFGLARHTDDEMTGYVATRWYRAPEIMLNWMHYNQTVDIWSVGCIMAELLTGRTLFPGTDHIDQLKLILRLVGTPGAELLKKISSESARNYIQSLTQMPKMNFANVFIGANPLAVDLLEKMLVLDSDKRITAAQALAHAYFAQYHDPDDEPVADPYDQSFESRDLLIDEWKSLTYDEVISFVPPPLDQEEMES

Regarding `CNc1ncc2cc(-c3cc(C(=O)Nc4cccc(C(F)(F)F)c4)c(F)cc3C)ccc2n1`, the IC50 in the data set with T-cell [1] was determined as 254 nM.

For `Nc1ncc2cc(-c3ccc(F)c(C(=O)Nc4cccc(C(F)(F)F)c4)c3)ccc2n1`, the IC50 in the data set on T-cell [1] is > 20000 nM.

With `CNc1ncc2cc(-c3cc(C(=O)Nc4cc(C(F)(F)F)ccc4N4CC(C)(C)C4=O)ccc3C)ccc2n1`, the IC50 in the data set with T-cell [1] was found to be 17 nM; in data set [2], 360 nM; in the data set on T-cell [3], 89 nM; in data set [4], 193 nM; in data set [5] it was 172 nM; in data set [6] it was 2 nM. The same compound yielded an Activity in the data set filed under Homo sapiens of 2.31 µM.

As for `CNc1ncc2cc(-c3cc(NC(=O)c4cccc(C(F)(F)F)c4)ccc3C)ccc2n1`, the IC50 amounted to 167 nM in the data set with T-cell [1]; 5 nM in data set [2]; 154 nM in data set [4]; 0.9 nM in data set [5]; 0.3 nM in data set [6].

For the compound `Cc1ccc(C(=O)Nc2cccc(C(F)(F)F)c2C)cc1-c1ccc2nc(NCCN3CCOCC3)ncc2c1`, the half-maximal inhibitory concentration (IC50) in the data set with T-cell [1] is 357 nM; in data set [2] it was 15 nM; in data set [4], 626 nM; in data set [5], 40 nM; in data set [6], 3 nM. In data set [7] (read-out: Solubility), the solubility is 0.175 mg/mL (≈ 318 µM).

For `CNc1ncc2cc(-c3cc(NC(=O)Nc4cccc(C(F)(F)F)c4)ccc3C)ccc2n1`, the IC50 in the data set with T-cell [1] came to 280 nM; in data set [2] it was 52 nM; in data set [4], 1140 nM; in data set [5], 5 nM; in data set [6], 8 nM.

As to `CNc1ncc2cc(-c3cc(C(=O)Nc4ccc(Cl)c(C(F)(F)F)c4C)ccc3C)ccc2n1`, the IC50 turned out to be 1700 nM with T-cell [1]; 21 nM in data set [2]; 106 nM in data set [4]; 139 nM in data set [5]; 3 nM in data set [6].

As to `CNc1ncc2cc(-c3cc(Nc4nc5ccc(C(F)(F)F)cc5[nH]4)ccc3C)ccc2n1`, the IC50 in data set [2] was 1440 nM; in data set [4], > 25000 nM; in data set [5], 277 nM; in data set [6] it was 297 nM.

As for `CNc1ncc2cc(-c3cc(C(=O)Nc4cc(C(F)(F)F)ccc4N4CCN(C)C4=O)ccc3C)ccc2n1`, the IC50 was 499 nM in the data set with T-cell [1]; 461 nM in data set [2]; 987 nM in data set [4]; 4 nM in data set [5]; 2 nM in data set [6].

With `Cc1ccc(C(=O)Nc2cccc(C(F)(F)F)c2C)cc1-c1ccc2nc(NCCN3CCCC3)ncc2c1`, the IC50 with T-cell [1] was 246 nM; in data set [2] it was 246 nM; with T-cell [3], 461 nM; in data set [4], > 8330 nM; in data set [5], 7 nM; in data set [6], 6 nM. In the data set filed under Homo sapiens, this compound yielded an Activity of 8.4 µM. In addition, the solubility in data set [7] (read-out: Solubility) is 0.172 mg/mL (≈ 322 µM).

Turning to `Cc1ccc(C(=O)Nc2cccc(C(F)(F)F)c2C)cc1-c1ccc2nc(NCCN3CCCCC3)ncc2c1`, the half-inhibitory concentration (IC50) in the data set on T-cell [1] was 667 nM; in data set [2] it was 173 nM; in data set [4] it was > 25000 nM; in data set [5], 9 nM; in data set [6], 6 nM. The solubility in data set [7] (read-out: Solubility) is > 0.2 mg/mL.

For `CNc1ncc2cc(-c3cc(C(=O)Nc4ccc(Cl)c(C(F)(F)F)c4)ccc3C)ccc2n1`, the IC50 in the data set with T-cell [1] is 133 nM; in data set [2] it was 3 nM; with T-cell [3], 86 nM; in data set [4], 16 nM; in data set [5], 14 nM; in data set [6], 0.5 nM.

Compound `Cc1cc(F)c(C(=O)Nc2cccc(C(F)(F)F)c2)cc1-c1ccc2nc(N)ncc2c1` showed an IC50 with T-cell [1] of 261 nM. This counts as sub-micromolar.

With `Cc1ccc(C(=O)Nc2cccc(C(F)(F)F)c2C)cc1-c1ccc2nc(NC3CC3)ncc2c1`, the IC50 in the data set with T-cell [1] worked out at 73 nM; in data set [2], 6 nM; in the data set on T-cell [3], 180 nM; in data set [4], 331 nM; in data set [5], 2 nM; in data set [6], 0.07 nM. For the same compound, the solubility in data set [7] (read-out: Solubility) was 0.013 mg/mL (≈ 27.3 µM).

As for `Cc1ccccc1-c1ccc2nc(N)ncc2c1`, the IC50 in data set [2] stood at 4970 nM; in data set [4] it was 9820 nM; in data set [5], 3900 nM; in data set [6] it was 94 nM.

In the data set on T-cell [1], `Nc1ncc2cc(-c3cc(C(=O)Nc4cccc(C(F)(F)F)c4)ccc3Cl)ccc2n1` returned an IC50 of 22 nM.

Consider `Cc1ccc(C(=O)Nc2cccc(C(F)(F)F)c2C)cc1-c1ccc2nc(N(C)CCCN3CCOCC3)ncc2c1`, for which the IC50 with T-cell [1] was 844 nM; in data set [2], 292 nM; in data set [4], > 25000 nM; in data set [5], 65 nM; in data set [6], 14 nM. The solubility in data set [7] (read-out: Solubility) was > 0.2 mg/mL.

Turning to `Cc1ccc(C(=O)Nc2cccc(C(F)(F)F)c2C)cc1-c1ccc2nc(Nc3ccccc3)ncc2c1`, the IC50 is 44 nM in the data set with T-cell [1]; 4 nM in data set [2]; 46 nM in data set [4]; 57 nM in data set [5]; 1 nM in data set [6].

With `Nc1ncc2cc(-c3cccc(C(=O)Nc4cccc(C(F)(F)F)c4)c3)ccc2n1`, the half-maximal inhibitory concentration (IC50) in the data set with T-cell [1] was 2480 nM.

As to `CNc1ncc2cc(-c3cc(C(=O)Nc4cccc5c4CCC5)ccc3C)ccc2n1`, the IC50 with T-cell [1] was 1660 nM; in data set [2], 48 nM; in data set [4], 1340 nM; in data set [5] it was 21 nM; in data set [6], 0.3 nM.

`CNc1ncc2cc(-c3cc(C(=O)Nc4ccc(OC5CCN(C)CC5)cc4)ccc3C)ccc2n1`: the concentration for half-maximal inhibition (IC50) in the data set with T-cell [1] is 230 nM; in data set [2] it was 8 nM; with T-cell [3], 223 nM; in data set [4], > 8330 nM; in data set [5] it was 93 nM; in data set [6], 1 nM.

Consider `CNc1ncc2cc(-c3cc(C(=O)Nc4cccc(C(F)(F)F)c4C)ccc3C)ccc2n1`, for which the half-maximal inhibitory concentration (IC50) with T-cell [1] turned out to be 176 nM; in data set [2] it was 8 nM; in the data set with T-cell [3], 160 nM; in data set [4], 133 nM; in data set [5], 50 nM; in data set [6] it was 0.01 nM. In data set [7], this compound returned a solubility of 0.019 mg/mL (≈ 42.2 µM).

On to `Cc1ccc(C(=O)Nc2cccc(C(F)(F)F)c2C)cc1-c1ccc2nc(NC3CCN(C)CC3)ncc2c1`, for which the IC50 with T-cell [1] was 152 nM; in data set [2] it was 103 nM; with T-cell [3], 745 nM; in data set [4] it was > 8330 nM; in data set [5] it was 2 nM; in data set [6], 0.6 nM. The compound further registered an Activity in the data set listed under Homo sapiens of 7.3 µM. Besides, in data set [7] (read-out: Solubility), the solubility was 0.171 mg/mL (≈ 320 µM).

In the case of `Cc1ccc(C(=O)Nc2cccc(C(F)(F)F)c2C)cc1-c1ccc2nc(NCCCN3CCOCC3)ncc2c1`, the IC50 is 5 nM in the data set with T-cell [1]; 7 nM in data set [2]; 66 nM with T-cell [3]; 2190 nM in data set [4]; 25 nM in data set [5]; 0.4 nM in data set [6]. Further, the solubility in data set [7] (read-out: Solubility) is 0.182 mg/mL (≈ 323 µM).

Take `CCN(CC)CC(=O)Nc1ccc(C(F)(F)F)cc1NC(=O)c1ccc(C)c(-c2ccc3nc(NC)ncc3c2)c1`: the IC50 in the data set on T-cell [1] is 427 nM; in data set [2], 306 nM; in data set [4], > 8330 nM; in data set [5], 76 nM.

As to `CNc1ncc2cc(-c3cc(C(=O)Nc4cc(C(F)(F)F)ccc4NC(=O)NCCN4CCOCC4)ccc3C)ccc2n1`, the IC50 with T-cell [1] was found to be 52 nM; in data set [2], 47 nM; in data set [4], 722 nM; in data set [5] it was 31 nM; in data set [6], 0.4 nM.

On to `CNc1ncc2cc(-c3cc(C(=O)Nc4cc(C(F)(F)F)ccc4N4CCCCC4)ccc3C)ccc2n1`, for which the IC50 was 639 nM in the data set with T-cell [1]; 1410 nM in data set [2]; 253 nM in data set [4]; 168 nM in data set [5]; 48 nM in data set [6].

In turn, `CNc1ncc2cc(-c3cccc(C(=O)Nc4cccc(C(F)(F)F)c4)c3)ccc2n1` displayed an IC50 in the data set on T-cell [1] of 550 nM.

The IC50 is the concentration that gives 50% inhibition. For orientation: solubility means the dissolved amount per volume that the medium holds.
